US11311483B2, “Curcumin solubilisate” (AQUANOVA AG, priority 2012, dated 2022)

Assay: human study: plasma curcumin after a single oral dose of 500 mg curcumin
Assay type: in vivo
Conditions: 24 healthy persons, read-out: curcumin concentration in blood plasma
Experimental: The solubilisate according to the invention is further characterized in that the total curcuminoid concentration in human blood plasma, measured one hour after oral administration of 500 mg curcumin in the form of the solubilisate, is approximately 500 ng curcuminoid per ml plasma±100 ng curcuminoid per ml plasma. In contrast, when native curcumin is taken orally in powdered form, only approximately 1.3 ng curcuminoid per ml plasma is achieved after one hour.
The human study on which these values are based was conducted on 24 healthy persons between 19 and 29 years of age, who received a single oral dose of 500 mg native curcumin or curcumin in the form of the solubilisate according to the invention. Blood samples were withdrawn at various times over a period of 24 hours after the curcumin was taken. To minimize the possible concurrent influence of digested food, the test subjects were served standardized meals. One hour after taking the curcumin in native form, less than 1 nmol/l plasma was measured; 8 hours after administration, 2.4 nmol/l was measured; and 24 hours after administration, 2.4 nmol/l was measured. In contrast, for curcumin from the solubilisate according to the invention, one hour after administration, 1,964 nmol/l was measured in the blood plasma; 8 hours after administration, 307.1 nmol/l was measured; and 24 hours after administration, 67.7 nmol/l was measured. A solubilisate containing […] curcumin was used (the commercial product “6% NovaSOL Curcumin” of the applicant).

COc1cc(/C=C/C(=O)CC(=O)/C=C/c2ccc(O)c(OC)c2)ccc1O [native curcumin, Curcumin]
concentration at 8 h (8 hours after single oral dose of 500 mg): 2.4 nM
concentration at 24 h (24 hours after single oral dose of 500 mg): 2.4 nM
concentration at 1 h (one hour after single oral dose of 500 mg): < 1 nM
